In patent publication US20180074053A1 (priority 2016, published 2018):
Read-outs that look alike come from different tables or passages of the source.

How the values were obtained:
GPCR40 [1] = target: T1, GPCR40 (Homo sapiens, UniProt O14842); experiment: cell-based
Protocol: (§1) The platform uses ChemiScreen GPCR stable cell lines that are used for real-time calcium flux assays to rapidly, screen a spectrum of GPCRs. […] Percentage activation values were determined upon initial addition of compound(s). Percentage activation and inhibition values were determined for each GPCR relative to the reference compounds.
(§2) Assays were performed according to the manufacturer's instructions. […] The assay plate was read by the FLIPR TETRA® (Molecular Devices, Sunnyvale, Calif.). All assay plate data were subjected to appropriate baseline corrections and the maximum fluorescence values were processed to calculate percentage activation (relative to ECmax reference agonist and vehicle control values).

MC2 = MC2 (Homo sapiens, UniProt Q01718); experiment: cell-based
Protocol: as §1, §2

MC4 = MC4 (Homo sapiens, UniProt P32245); experiment: cell-based
Protocol: as §1, §2

MC5 = MC5 (Homo sapiens, UniProt P33032); experiment: cell-based
Protocol: as §1, §2

MCHR1 = MCHR1 (Homo sapiens, UniProt Q99705); experiment: cell-based
Protocol: as §1, §2

MCHR2 = MCHR2 (Homo sapiens, UniProt Q969V1); experiment: cell-based
Protocol: as §1, §2

MRGD = MRGD (Homo sapiens, UniProt Q8TDS7); experiment: cell-based
Protocol: as §1, §2

MRGX2 = MRGX2 (Homo sapiens, UniProt Q96LB1); experiment: cell-based
Protocol: as §1, §2

NK1 = NK1 (Homo sapiens, UniProt P25103); experiment: cell-based
Protocol: as §1, §2

NPBW1 = NPBW1 (Homo sapiens, UniProt P48145); experiment: cell-based
Protocol: as §1, §2

GPCR109a = GPCR109a (Homo sapiens, UniProt Q8TDS4); settings: doses of 5 mM and below; FIG. 6A
Protocol: (§3) Cells were grown in DMEM medium containing 10% FBS, 1× non-essential amino acids (Gibco #111450-040), 20 mM HEPES and 250 μg/mL Geneticin® (Gibco #10131-035). Cells were harvested with 0.25% Trypsin/EDTA (Gibco #25200-056), pelleted at 1,200×g for 6 minutes and resuspended in DMEM media described above minus Geneticin®. The cells were seeded at 4×10^4 cells/well/100 μL of a clear bottom/black 96-well plate and grown overnight. The calcium mobilization assays was performed using Screen Quest Fluo-8 Medium Removal Calcium Assay Kit (AAT Bioquest #36308) according to the manufacturer's protocol. Briefly, cells were washed with 100 μL volume of Hank's balanced salt solution, 20 mM HEPES, pH 7.4 and loaded with a buffer containing HBSS, 20 mM HEPES, 1× Pluronic F127 and the Fluo-8 NW dye. The cells were incubated for 30 minutes at 37° C. followed by a 30 minute room temperature incubation. Drug stocks were prepared at 100× concentration and diluted 1:33 in HBSS, 20 mM HEPES, pH 7.4 in a 96-well plate (Corning #3641). Calcium mobilization was measured using the FlexStation 3 (Molecular Devices) at excitation wavelength of 490 nm and emission wavelength of 525 nm. Fluorescence was measured for 180 seconds at 5 second intervals with the addition of compound at a 1:3 dilution after 15 seconds. Peak fluorescence values were calculated using SoftMax Pro 5 (Molecular Devices). The fluorescence values obtained from control wells without cells are subtracted from wells containing treated cells to correct for background. The ratio of fluorescence values of treated cells to vehicle control wells was used to calculate fold activity of the compounds.
(§4) The specificity of the agonist activity was determined by testing in the cell lines that over-express GPCR40 and GPCR 109a.

GPCR40 [2] = target: T1, GPCR40; settings: doses of 5 mM and below; FIG. 7A
Protocol: as §3, §4

eNOS = eNOS mRNA expression in HUVEC; assay type: cell-based, human; settings: FIG. 15
Description: It has been shown that activation of MRGD by alamandine plays an important role in vasodilation by increasing nitric oxide (NO) production. NO produced by the endothelium is an important protective molecule in the vasculature and is mainly generated by the enzyme endothelial NO synthase (eNOS) in blood vessels. Enhancing the expression of eNOS has been considered as possible therapeutic strategy for reducing cardiovascular risk.

HEK293T cells = settings: 0.0037-0.1 mM; FIG. 4
Protocol: Real-time Ca2+ flux assays. To further validate the GPCRProfiler results, we established a real-time Ca2+ flux assay using a FlexStation 3 Microplate Reader (Molecular Devices). […] The Fluo-4 Direct™ Calcium Assay Kits (Life Technologies), which allows direct addition to wells containing cells growing in culture media without the requirement of media removal or a wash step, is used to monitor Ca2+ flux in cells according to the manufacturer's protocol. Briefly, HEK293T cells are plated and cultured in 96-well microplates to near confluence. The microplates containing cells are removed from the incubator and an equal volume of 2× Fluo-4 Direct™ calcium reagent loading solution is added directly to wells containing cells in culture medium. The plates are incubated for 30 minutes at 37° C. and 30 minutes at room temperature. Then the plates (no need to remove the medium or Fluo-4 Direct™ calcium reagent) are placed on FlexStation 3 with settings appropriate for excitation at 494 nm and emission at 516 nm. FlexStation 3 can directly transfer reagents from 96-well source plates to a read plate one column at a time. […] Shaded shapes are negative controls.

[3] = read-out: percent activation compared to standards, DT-110 @ 1.25 mM, Avg.
[4] = read-out: percent activation compared to standards, DT-110 @ 1.25 mM, n1
[5] = read-out: percent activation compared to standards, DT-110 @ 1.25 mM, n2
[6] = read-out: percent activation compared to standards, DT-110 @ 12.5 mM, Avg.
[7] = read-out: percent activation compared to standards, DT-110 @ 12.5 mM, n1
[8] = read-out: percent activation compared to standards, DT-110 @ 12.5 mM, n2

Chain of MC4 (P32245 whole entry): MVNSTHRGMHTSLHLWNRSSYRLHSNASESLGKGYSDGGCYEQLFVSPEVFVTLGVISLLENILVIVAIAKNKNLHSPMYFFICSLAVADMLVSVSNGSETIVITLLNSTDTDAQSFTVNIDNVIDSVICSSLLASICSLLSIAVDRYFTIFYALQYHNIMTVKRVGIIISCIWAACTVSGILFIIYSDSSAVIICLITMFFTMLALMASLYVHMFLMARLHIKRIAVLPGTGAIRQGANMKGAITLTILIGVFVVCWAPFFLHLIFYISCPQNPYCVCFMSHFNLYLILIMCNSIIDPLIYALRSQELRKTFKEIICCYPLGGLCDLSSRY
Chain of MC2 (Q01718 whole entry): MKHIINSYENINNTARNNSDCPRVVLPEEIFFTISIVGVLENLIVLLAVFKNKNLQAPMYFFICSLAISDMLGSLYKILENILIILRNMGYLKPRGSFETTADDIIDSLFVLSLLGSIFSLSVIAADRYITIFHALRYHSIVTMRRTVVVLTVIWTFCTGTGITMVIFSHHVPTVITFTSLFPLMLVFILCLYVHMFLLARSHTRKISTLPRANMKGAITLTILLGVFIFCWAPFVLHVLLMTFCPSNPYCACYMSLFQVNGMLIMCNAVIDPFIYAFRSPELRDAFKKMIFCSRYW
Chain of MC2 (Q8TCY5 whole entry partner): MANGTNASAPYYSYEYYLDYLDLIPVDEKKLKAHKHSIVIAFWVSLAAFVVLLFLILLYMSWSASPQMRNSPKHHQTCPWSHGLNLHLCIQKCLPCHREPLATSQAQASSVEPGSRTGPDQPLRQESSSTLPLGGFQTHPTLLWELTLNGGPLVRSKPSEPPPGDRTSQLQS
Chain of MC5 (P33032 whole entry): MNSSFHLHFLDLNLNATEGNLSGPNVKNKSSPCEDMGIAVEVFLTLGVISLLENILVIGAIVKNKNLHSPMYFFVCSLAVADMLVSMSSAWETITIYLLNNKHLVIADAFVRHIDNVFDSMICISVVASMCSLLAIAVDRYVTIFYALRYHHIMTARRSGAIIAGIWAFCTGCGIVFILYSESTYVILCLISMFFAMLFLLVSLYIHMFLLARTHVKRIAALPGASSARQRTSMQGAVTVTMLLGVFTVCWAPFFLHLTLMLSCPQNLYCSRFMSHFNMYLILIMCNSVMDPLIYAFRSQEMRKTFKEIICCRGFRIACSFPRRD
Chain of MCHR1 (Q99705 whole entry): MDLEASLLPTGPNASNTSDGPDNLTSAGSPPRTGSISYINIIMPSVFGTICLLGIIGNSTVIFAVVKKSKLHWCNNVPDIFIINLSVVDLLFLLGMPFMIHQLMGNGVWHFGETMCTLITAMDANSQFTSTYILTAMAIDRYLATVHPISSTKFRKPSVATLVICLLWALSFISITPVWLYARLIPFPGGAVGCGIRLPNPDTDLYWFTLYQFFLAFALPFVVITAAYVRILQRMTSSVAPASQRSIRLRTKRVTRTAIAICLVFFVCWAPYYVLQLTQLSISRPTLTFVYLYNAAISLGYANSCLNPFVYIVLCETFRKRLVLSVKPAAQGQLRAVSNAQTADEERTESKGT
Chain of NPBW1 (P48145 whole entry): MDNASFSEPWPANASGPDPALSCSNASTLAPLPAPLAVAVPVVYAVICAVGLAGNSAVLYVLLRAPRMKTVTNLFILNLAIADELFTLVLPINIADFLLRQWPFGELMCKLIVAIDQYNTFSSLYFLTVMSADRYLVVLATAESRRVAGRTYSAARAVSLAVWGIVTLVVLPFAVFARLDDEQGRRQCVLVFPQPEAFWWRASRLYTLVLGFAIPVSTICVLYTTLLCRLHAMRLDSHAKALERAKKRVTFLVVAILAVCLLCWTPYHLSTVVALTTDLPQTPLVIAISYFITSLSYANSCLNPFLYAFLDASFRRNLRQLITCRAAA
Chain of MRGD (Q8TDS7 whole entry): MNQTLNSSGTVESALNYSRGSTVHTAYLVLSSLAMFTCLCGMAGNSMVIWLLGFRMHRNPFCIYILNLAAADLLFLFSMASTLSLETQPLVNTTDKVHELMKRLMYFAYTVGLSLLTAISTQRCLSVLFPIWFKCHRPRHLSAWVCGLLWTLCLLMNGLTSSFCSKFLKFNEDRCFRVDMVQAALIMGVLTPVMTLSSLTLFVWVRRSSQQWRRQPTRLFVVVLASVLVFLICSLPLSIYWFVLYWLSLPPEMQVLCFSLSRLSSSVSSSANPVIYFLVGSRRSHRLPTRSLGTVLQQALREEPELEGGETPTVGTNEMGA
Chain of MCHR2 (Q969V1 whole entry): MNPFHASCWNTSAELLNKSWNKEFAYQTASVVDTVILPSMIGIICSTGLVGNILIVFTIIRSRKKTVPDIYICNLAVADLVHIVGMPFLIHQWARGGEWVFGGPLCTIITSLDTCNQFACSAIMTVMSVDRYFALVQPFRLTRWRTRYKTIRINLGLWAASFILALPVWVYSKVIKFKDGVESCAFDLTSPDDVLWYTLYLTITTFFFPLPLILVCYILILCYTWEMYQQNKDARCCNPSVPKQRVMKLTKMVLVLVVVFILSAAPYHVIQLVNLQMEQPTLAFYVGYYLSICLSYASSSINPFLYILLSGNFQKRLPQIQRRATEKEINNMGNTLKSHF
Chain of MRGX2 (Q96LB1 whole entry): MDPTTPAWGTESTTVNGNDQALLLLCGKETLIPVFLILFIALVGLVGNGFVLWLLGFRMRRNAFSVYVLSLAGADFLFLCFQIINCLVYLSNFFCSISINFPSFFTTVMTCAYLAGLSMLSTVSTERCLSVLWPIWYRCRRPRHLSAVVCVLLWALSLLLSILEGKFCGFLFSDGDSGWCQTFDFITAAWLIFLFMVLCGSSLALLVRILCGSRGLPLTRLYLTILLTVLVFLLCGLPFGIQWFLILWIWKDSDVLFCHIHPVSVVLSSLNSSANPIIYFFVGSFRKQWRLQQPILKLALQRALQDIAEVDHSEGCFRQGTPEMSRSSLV
Chain of NK1 (P25103 whole entry): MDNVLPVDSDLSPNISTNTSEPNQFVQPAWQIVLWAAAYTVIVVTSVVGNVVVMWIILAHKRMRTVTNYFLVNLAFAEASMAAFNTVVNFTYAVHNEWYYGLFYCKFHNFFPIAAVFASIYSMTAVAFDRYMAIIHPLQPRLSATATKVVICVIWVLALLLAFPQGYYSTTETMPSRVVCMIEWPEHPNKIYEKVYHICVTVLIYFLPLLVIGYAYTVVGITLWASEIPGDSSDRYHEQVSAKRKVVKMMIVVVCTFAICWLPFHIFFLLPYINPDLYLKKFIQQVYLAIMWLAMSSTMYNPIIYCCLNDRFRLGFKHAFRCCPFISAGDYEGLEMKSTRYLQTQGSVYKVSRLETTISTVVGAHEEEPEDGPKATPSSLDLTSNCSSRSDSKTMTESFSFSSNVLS
T1 sequence (O14842 whole entry): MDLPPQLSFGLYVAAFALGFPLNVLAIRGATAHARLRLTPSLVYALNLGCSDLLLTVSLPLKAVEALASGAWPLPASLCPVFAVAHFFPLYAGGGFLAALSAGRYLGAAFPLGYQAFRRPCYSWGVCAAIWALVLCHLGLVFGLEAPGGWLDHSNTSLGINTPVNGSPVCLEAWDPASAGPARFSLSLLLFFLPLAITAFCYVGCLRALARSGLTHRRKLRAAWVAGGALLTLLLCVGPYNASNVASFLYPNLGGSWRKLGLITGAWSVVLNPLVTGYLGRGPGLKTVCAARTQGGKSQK
Chain of GPCR109a (Q8TDS4 whole entry): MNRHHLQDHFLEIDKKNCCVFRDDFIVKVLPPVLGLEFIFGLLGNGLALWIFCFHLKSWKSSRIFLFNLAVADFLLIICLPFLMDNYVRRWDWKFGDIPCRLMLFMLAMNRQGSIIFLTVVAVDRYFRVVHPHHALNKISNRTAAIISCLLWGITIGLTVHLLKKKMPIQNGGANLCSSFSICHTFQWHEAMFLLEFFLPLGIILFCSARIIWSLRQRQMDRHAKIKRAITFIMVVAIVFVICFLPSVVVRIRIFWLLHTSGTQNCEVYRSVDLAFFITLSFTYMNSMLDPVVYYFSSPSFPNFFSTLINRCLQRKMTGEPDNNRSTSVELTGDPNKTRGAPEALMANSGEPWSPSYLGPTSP

SMILES: CC(C)C[C@@H](NC(=O)CNC(=O)CN)C(=O)O
- activation at 1250 µM (GPCR40 [1]; [3]): -9.5%
- activation at 1250 µM (GPCR40 [1]; [4]): -9.3%
- activation at 1250 µM (GPCR40 [1]; [5]): -9.6%
- activation at 12500 µM (GPCR40 [1]; [6]): 50.2%
- activation at 12500 µM (GPCR40 [1]; [7]): 55.9%
- activation at 12500 µM (GPCR40 [1]; [8]): 44.5%
- activation at 1250 µM (MC2; [3]): -0.7%
- activation at 1250 µM (MC2; [4]): 0.6%
- activation at 1250 µM (MC2; [5]): -2%
- activation at 12500 µM (MC2; [6]): -1%
- activation at 12500 µM (MC2; [7]): -1%
- activation at 12500 µM (MC2; [8]): -0.9%
- activation at 1250 µM (MC4; [3]): -0.5%
- activation at 1250 µM (MC4; [4]): 3%
- activation at 1250 µM (MC4; [5]): -4%
- activation at 12500 µM (MC4; [6]): 3.4%
- activation at 12500 µM (MC4; [7]): -0.2%
- activation at 12500 µM (MC4; [8]): 7%
- activation at 1250 µM (MC5; [3]): 0%
- activation at 1250 µM (MC5; [4]): 0.7%
- activation at 1250 µM (MC5; [5]): -0.8%
- activation at 12500 µM (MC5; [6]): -0.3%
- activation at 12500 µM (MC5; [7]): -0.6%
- activation at 12500 µM (MC5; [8]): 0%
- activation at 1250 µM (MCHR1; [3]): 0.4%
- activation at 1250 µM (MCHR1; [4]): 0.2%
- activation at 1250 µM (MCHR1; [5]): 0.7%
- activation at 12500 µM (MCHR1; [6]): -0.1%
- activation at 12500 µM (MCHR1; [7]): -0.5%
- activation at 12500 µM (MCHR1; [8]): 0.3%
- activation at 1250 µM (MCHR2; [3]): 0.5%
- activation at 1250 µM (MCHR2; [4]): 0.1%
- activation at 1250 µM (MCHR2; [5]): 0.8%
- activation at 12500 µM (MCHR2; [6]): -0.9%
- activation at 12500 µM (MCHR2; [7]): -0.8%
- activation at 12500 µM (MCHR2; [8]): -0.9%
- activation at 1250 µM (MRGD; [3]): 69.2%
- activation at 1250 µM (MRGD; [4]): 76.5%
- activation at 1250 µM (MRGD; [5]): 62%
- activation at 12500 µM (MRGD; [6]): 64.5%
- activation at 12500 µM (MRGD; [7]): 60.7%
- activation at 12500 µM (MRGD; [8]): 68.3%
- activation at 1250 µM (MRGX2; [3]): -0.2%
- activation at 1250 µM (MRGX2; [4]): 0%
- activation at 1250 µM (MRGX2; [5]): -0.4%
- activation at 12500 µM (MRGX2; [6]): 0%
- activation at 12500 µM (MRGX2; [7]): 0.4%
- activation at 12500 µM (MRGX2; [8]): -0.4%
- activation at 1250 µM (NK1; [3]): -0.9%
- activation at 1250 µM (NK1; [4]): -1%
- activation at 1250 µM (NK1; [5]): -0.9%
- activation at 12500 µM (NK1; [6]): -1.1%
- activation at 12500 µM (NK1; [7]): -1%
- activation at 12500 µM (NK1; [8]): -1.1%
- activation at 1250 µM (NPBW1; [3]): 0.2%
- activation at 1250 µM (NPBW1; [4]): 1.6%
- activation at 1250 µM (NPBW1; [5]): -1.1%
- activation at 12500 µM (NPBW1; [6]): -0.9%
- activation at 12500 µM (NPBW1; [7]): -0.8%
- activation at 12500 µM (NPBW1; [8]): -0.9%
- agonist activity (Ca2+ flux) (GPCR109a): inactive
- agonist activity (Ca2+ flux) (GPCR40 [2]): inactive
- eNOS mRNA levels (eNOS; 30 minutes, vs control): the same
- eNOS expression (eNOS; 60 minutes): increased eNOS expression
- eNOS expression (eNOS; 120 minutes): increased eNOS expression
- real-time Ca2+ flux (HEK293T cells): stimulate greater Ca^2+ flux
